Test results reported in patent US11747321B2, “Apparatuses for cell mapping via impedance measurements and methods to operate the same” (President and Fellows of Harvard College, priority 2020, dated 2023).

Legend:
MDCK cells [1] = tested on: MDCK cells
Source text: Ethylenediaminetetraacetic acid (EDTA) is applied to the cells. EDTA is a calcium chelator that removes Ca^2+ needed for integrin proteins to maintain cell adhesion.
FIG. 6b is a data plot showing mean normalized impedances for different regions of the cell culture over time as specified in the map 601. FIG. 6cc are histograms of the normalized impedance values before, during, and after a washout of EDTA across the array.

MDCK cells [2] = assay: Wound healing assay: electrochemically patterned wound, regrowth measured by impedance mapping; format: cell-based, Canine; details: 1 μM, over 72 hours, control culture shows regrowth
Source text: This example describes a combined application of both the cross-electrode impedance mapping and cell patterning is a wound healing assay.
These assays gauge cell growth rate and metabolism and can be useful for screening drugs affecting these parameters. Compared to the electrochemical patterning described herein, other tools mechanically generate a wound in a cell culture via a mechanical scratch which is both difficult to control and limiting in terms of wound pattern.
In this example, a wound is made in MDCK cells and then the growth is mapped in real-time. […] These patterns were defined by applying electrode currents of −10 nA for 40 s versus a Ag/AgCl pseudo reference electrode. The regrowth of the culture was then measured using the impedance mapping method.

Structure (SMILES): O=C(O)CN(CCN(CC(=O)O)CC(=O)O)CC(=O)O [EDTA, Ethylenediaminetetraacetic acid]
- time course of cell detachment with EDTA applied (MDCK cells [1]; 5 mM EDTA application, normalized impedance maps): ~50 min
- time course of cell re-attachment after EDTA washout (MDCK cells [1]; EDTA washed out by adding normal culture media): ~200 min

Structure (SMILES): C=C1[C@@H](C)[C@H]2[C@H](Cc3ccccc3)NC(=O)[C@]23OC(=O)/C=C/[C@H](O)CCC[C@@H](C)C/C=C/[C@H]3[C@@H]1O [cytochalasin B]
- regrowth of wounded cell culture (normalized cross-electrode impedance maps) (MDCK cells [2]): very little growth
